Data set [1] concerns Tetranychus urticae. In words: Efficacy against Tetranychus urticae (two-spotted spider mites), spray on kidney-bean seedling. The following applies: in vivo. The method, then: Efficacy Against Tetranychus urticae (Tu; Two-spotted Spider Mites
Fifteen adult females were inoculated on a potted Kidney-bean seedling. On the next day, the chemical solution at different concentration was sprayed on the Kidney-bean seedling by a glass nozzle using an air compressor. After air-dried the Kidney-bean pot was maintained in a room kept at 25° C. and 65%RH.
On three days after treatment, the numbers of dead and alive mites were counted and mortality was calculated by Abbott's formula.
Each test was duplicated. [formula]

Data set [2] has as its system Pseudaletia separata. In words: whole plant or invertebrate. The class given is in vivo. The following applies: Mythimna separata, in Zea mays, foliar, 120 h. The method, then: Efficacy Against Pseudaletia separata Walker (Ps; Rice Armyworm)
A piece of Maize leaf (ca. 7×1.5 cm) was dipped in the chemical solution at 125 ppm for 30 sec and air-dried. The leaf was placed in a glass petri dish (9 cm diameter) and five second-instar larvae of Pseudaletia separata were introduced into the petri dish. Five days after the treatment, the number of survival larvae was counted and the mortality was calculated by Abbott's formula. Each test was duplicated.

Data set [3] deals with Plutella xylostella. The data set is described as follows: whole plant or invertebrate. The following applies: in Brassica oleracea, 72 h. The class given is in vivo. An excerpt:
Efficacy Against Plutella xylostella Linne (Px; Diamondback Moth)
The chemical solution at 125 ppm was sprayed on a Cabbage seedling by a glass nozzle using an air compressor. After airdried, a small leaf (ca. 5 cm diameter) was detached from the treated plant and placed in a glass petri dish (ca. 9 cm diameter). Five second-instar larvae of Plutella xylostella were introduced into the petri dish. Three days after the treatment, the number of survival larvae was counted and the mortality was calculated by Abbott's formula. Each test was duplicated.

SMILES strings stand for the structures.

As for `O=C(Nc1nc(C(F)(F)F)c(Br)s1)c1ccc(Cl)c(Cl)c1` [Compound 19, N-(5-Bromo-4-trifluoromethylthiazol-2-yl)-3,4-dicloro-benzamide], the mortality (as a rule, the share of the test organisms that died) in data set [1] amounted to 100%.
On to `O=C(Nc1nc(C(F)(F)F)c(Br)s1)c1cccs1` [Compound 34, N-(5-Bromo-4-trifluoromethylthiazol-2-yl)thiophene-2-carboxamide], for which the melting point (commonly the temperature of the solid-liquid transition) lay in the range of 184 to 185 °C.
Regarding `O=C(Nc1nc(C(F)(F)F)c(I)s1)c1c(Cl)cccc1Cl` [Compound 44, N-(5-Iodo-4-trifluoromethylthiazol-2-yl)-2,6-dichloro-benzamide], in data set [2], the mortality at 125 ppm was 100%.
As to `O=C(Nc1nc(C(F)(F)F)c(I)s1)c1ccc(C(F)(F)F)cc1` [Compound 45, N-(5-Iodo-4-trifluoromethylthiazol-2-yl)-4-trifluoromethyl-benzamide], the mortality at 125 ppm in data set [3] and in data set [2] was 100% in each case.
Regarding `O=C(Nc1nc(C(F)(F)F)c(Cl)s1)c1ccc(Cl)c([N+](=O)[O-])c1` [Compound 80, N-(5-Chloro-4-trifluoromethylthiazol-2-yl)-4-chloro-3-nitrobenzamide], the melting point lay within 183 to 184 °C.
With `O=C(Nc1nc(C(F)(F)F)c(-c2ccc(F)cc2)s1)c1ccc(C(F)(F)F)cc1` [Compound 81, N-(5-(4-Fluorophenyl)-4-trifluoromethylthiazol-2-yl)-4-trifluoromethylbenzamide], the mortality at 125 ppm in data set [2] is 100%.
The compound `O=C(Nc1nc(C(F)(F)F)c(I)s1)c1cc(C(F)(F)F)cc(C(F)(F)F)c1` [Compound 102, N-(5-Iodo-4-trifluoromethylthiazol-2-yl)-3,5-bis-trifluoromethylbenzamide] showed a melting point of 172 to 173 °C.
The compound `N#CSc1sc(NC(=O)c2cccc(C(F)(F)F)c2)nc1C(F)(F)F` [Compound 131, N-(5-thiocyanato-4-trifluoromethylthiazol-2-yl)-3-trifluoromethylbenzamide] gave a melting point of 167 to 168 °C.

The values above are taken from US6737382B1, “Insecticidal aminothiazole derivatives” (Nippon Soda Co. Ltd., priority 2002, dated 2004).
